The target of this assay is T1, Monoglyceride lipase (Homo sapiens, UniProt Q99685).
T1 sequence (Q99685 whole entry): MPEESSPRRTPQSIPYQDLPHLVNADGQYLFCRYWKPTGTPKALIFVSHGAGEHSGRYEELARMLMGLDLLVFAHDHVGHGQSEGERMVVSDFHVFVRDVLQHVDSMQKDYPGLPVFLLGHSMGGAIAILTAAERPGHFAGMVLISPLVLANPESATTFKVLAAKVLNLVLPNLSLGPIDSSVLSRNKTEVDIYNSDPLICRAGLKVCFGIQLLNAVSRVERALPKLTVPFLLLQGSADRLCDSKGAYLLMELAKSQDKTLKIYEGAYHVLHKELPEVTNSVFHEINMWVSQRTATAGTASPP
The assay can be described thus: In Vitro Competitive Activity-Based Protein Profiling: Proteomes (mouse brain membrane fraction for mouse assays; human prefrontal cortex membrane fractions for human assays) (50 mL, 1.0 mg/mL total protein concentration) were preincubated with varying concentrations of inhibitors at 37° C. After 30 min, FP-Rh (1.0 mL, 50 mM in DMSO) was added and the mixture was incubated for another 30 min at 37° C.

For orientation: IC50 means the point on the concentration scale where inhibition reaches its midpoint. For the molecule `O=C(O)c1ccn(C(=O)N2C[C@H]3C[C@H](Oc4cc(Cl)ccc4C(F)(F)F)C[C@H]3C2)n1`, the IC50 is below 100 nM.
